Patent US7375086B2, “Modulators of Nod2 signaling” (The Regents of the University of Michigan, priority 2000, dated 2008)

Experiments:
Nod2-Fpk3 = assay: Enforced oligomerization of Fpk3-Nod2 chimeric proteins, NF-κB reporter in HEK293T cells; type: cell-based, human
Method: HEK293T cells were transfected with of control plasmid (−) or plasmids producing the indicated Myc-tagged Fpk3Nod2 proteins. Extracts from equal number of cells was immunoprecipitated and immunoblotted with rabbit anti-Myc antibody. […] 2×10^5 HEK293T cells were transfected with 1 ng of the indicated plasmids in the presence of pBVIx-luc and pEF-BOS-β-gal. 8 hr post-transfection, cells were treated with 500 nM AP1510 (black bars) or left untreated (white bars). 24 hr post-transfection, the κB-dependent transcription was determined as described below. Values represent mean ±SD of triplicate cultures.
In the case of Nod1, its oligomerization appears to promote proximity of RICK and NF-κB activation. To test a similar role for Nod2, plasmids were constructed to express chimeric proteins in which wt or Nod2 mutants were fused to three tandem repeated dimerization domains of Fpk (Fpk3), which can be oligomerized by the cell-permeable ligand AP1510 (MacCorkle et al., Proc. Nat. Acad. Sci. U. S. A. 95: 3655-3660 [1998]). […] Because wt Nod2 alone induces NF-KB activation, we expressed suboptimal amounts of the chimeric Fpk3-Nod2 constructs into HEK293T cells. […] Similarly, NF-κB activation induced by a Nod2 P-loop mutant lacking the LRRs (K305RALRR), which have reduced ability to induce NF-κB activation, was enhanced by enforced oligomerization (FIG. 7C). […]

NF-κB [1] = assay: NF-κB binding activity by EMSA in nuclear extracts of PBMNC; type: cell-based, human; conditions: PBMNC nuclear extracts, EMSA
Method: FIGS. 20C and D show PBMNC analyzed for expression of IL-1β (C) and A1 (D) transcripts by quantitative RT-PCR.
Genotyping was performed using a ddNTP primer extension system. Nuclear extracts from LPS-stimulated cells were pre-incubated with antibody specific for p50 subunit of NF-κB to monitor the size of the NF-κB-DNA complex. cDNA was amplified with specific primers for human IL-1β, glyceraldehyde-3-phosphate-dehydrogenase (GAPDH) as described (5) and A1 (5′-[…]-3′ (SEQ ID NO: 53) and 5′-[…]-3′ (SEQ ID NO:54)). The levels of IL-1β and A1 transcripts normalized to that of GAPDH were expressed relative to those in untreated cells that were considered as baseline. Specificity of the desired PCR products was determined by melting curve analysis. Histograms represent the mean ±S.D. of triplicate analyses.
The NOD2 variants associated with Crohn's disease, R702W, G908R and L1007fsinsC, occur on the same haplotype background, which includes the common P268S polymorphism (Hugot et al., Nature 411:599 [2001]; Ogura et al., Nature 411:603 [2001]). To compare the ability of normal and mutant NOD2 proteins to induce NF-κB activity in response to MDP, the NOD2 proteins were expressed in cells and evaluated in a functional assay. […] The role of NOD2 in the recognition of MDP by primary cells from normal and Crohn's disease patients was next determined. A panel of healthy and Crohn's disease individuals were genotyped for the disease-associated NOD2 alleles and two individuals (one without clinical evidence of disease and one individual with Crohn's disease) who were homozygous for the loss-of-function L1007fsinsC mutation were identified (FIG. 20A). The identification of apparently healthy individuals homozygous for L1007fsinsC is expected in that the penetrance of the L1007fsinsC mutation is not complete (Hugot et al., supra; Ogura et al., supra; Hampe et al., Lancet 357:1925 [2001]; Ahmad et al., Gastroenterology 122:854 [2002]). Peripheral blood mononuclear cells (PBMNC) that are known to express NOD2 were isolated, incubated with MDP or LPS and NF-κB activation was assessed in nuclear extracts by an electrophoretic mobility shift assay (EMSA).

Nod2 = molecular target: T1, Nod2 (Homo sapiens, UniProt Q9HC29, R703H); assay: NF-κB reporter assay in HEK293T/HEK293 cells expressing Nod2; type: cell-based; conditions: 100 ng/ml (FIG. 18C)
T1 construct: ligated to generate an unique cDNA containing the entire open reading frame of Nod2; expressed in transfected cells; host or cells: HEK293T

NF-κB [2] = assay: NF-κB luciferase reporter assay in HEK293T cells transfected with control plasmid; type: cell-based, human
Method: Induction of NF-κB activation was determined in triplicate cultures of HEK293T cells transfected with 30 ng of Nod2 plasmid (open bars) or stimulated with 10 ng/ml of TNFα for 4 h (closed bars) and 70 ng of I-κBα S32A/S36A, IKKα K44A, IKKβ K44A, RICK (406-540) or RIP (558-671) expression plasmid in the presence of pBVIx-Luc and pEF-BOS-β-gal. Results are presented as a percent of values obtained with Nod2 and control plasmid. In the experiment shown, Nod2 and TNFα induced 58±8-fold and 14±1-fold activation of NF-κB, respectively. Values represent mean ±SD of triplicate cultures. […] Induction of NF-κB activation was determined from triplicate cultures of I×10^5 HEK293T cells co-transfected with the indicated plasmids and pBVIx-Luc in the presence of control plasmid pEF-BOS-β-gal. […]
8 hr post-transfection, cells were treated with 10 μg/ml of each pathogen product, lipoteichoic acid (LTA) or peptidoglycan (PGN) from Staphylococcus aureus, lipopolysaccharide (LPS) from Escherichia coli 055:B5, mannan from Candida albicans 20A, synthetic soluble bacterial lipoprotein (SBLP) or left untreated (Control). 24 hr post-transfection, κB-dependent transcription was determined by luciferase activity relative and values normalized to β-galactosidase in triplicate cultures. […] Twenty-four hr post-transfection, κB-dependent transcription was determined as described above. […]

TLR2 = molecular target: T2, TLR2 (Homo sapiens, UniProt O60603); assay: NF-κB reporter assay in HEK293 cells stably transfected with TLR2; type: cell-based; conditions: MDP 100 ng/ml, sBLP 1000 ng/ml
T2 construct: expressed in transfected cells
Method: Molecules with two copies (2mer) or four copies (4mer) of GlcNAc-MurNAc with attached L-Ala-D-isoGln and their counterparts lacking dipeptide (2mer-aa, 4mer-aa) were synthesized as described (Inamura et al., Tetrahedron Lett. 42:7613 [2001]). Eight hours post-transfection, the indicated amount of each compound was added to the cells and the ability of each compound to activate NF-κB was determined as above. The ability of MDP (100 ng/ml) and sBLP (1000 ng/ml) to activate NF-κB was determined by transfection of 0.3 ng pcDNA3-Nod2 (Nod2) or control plasmid (−) into HEK293 cells or in HEK293 cells stably transfected with TLR2 (TLR2) or with control plasmid (−) and reporter pBxIV-luc and pEF-BOS-β-gal plasmids. Values represent the mean of normalized data ±S.D. of triplicate cultures.

NF-κB [3] = assay: NF-κB reporter assay in parental Rat1 fibroblasts; type: cell-based, rat
Method: Induction of NF-κB activation was determined in triplicate cultures of HEK293T cells transfected with 30 ng of Nod2 plasmid (open bars) or stimulated with 10 ng/ml of TNFα for 4 h (closed bars) and 70 ng of I-κBα S32A/S36A, IKKα K44A, IKKβ K44A, RICK (406-540) or RIP (558-671) expression plasmid in the presence of pBVIx-Luc and pEF-BOS-β-gal. Results are presented as a percent of values obtained with Nod2 and control plasmid. In the experiment shown, Nod2 and TNFα induced 58±8-fold and 14±1-fold activation of NF-κB, respectively. Values represent mean ±SD of triplicate cultures. […] Induction of NF-κB activation was determined from triplicate cultures of I×10^5 HEK293T cells co-transfected with the indicated plasmids and pBVIx-Luc in the presence of control plasmid pEF-BOS-β-gal. Values represent mean ±SD of triplicate cultures.
NF-κB activation assays. NF-κB activation assays were performed as described (Inohara et al., [1999] supra, Inohara et al., [2000], supra). […] 24 hr post-transfection, cell extracts were prepared and its relative luciferase activity was measured as described (Inohara et al., [1999] supra, Inohara et al., [2000], supra). […]

T2 sequence (O60603 21-784, species assumed): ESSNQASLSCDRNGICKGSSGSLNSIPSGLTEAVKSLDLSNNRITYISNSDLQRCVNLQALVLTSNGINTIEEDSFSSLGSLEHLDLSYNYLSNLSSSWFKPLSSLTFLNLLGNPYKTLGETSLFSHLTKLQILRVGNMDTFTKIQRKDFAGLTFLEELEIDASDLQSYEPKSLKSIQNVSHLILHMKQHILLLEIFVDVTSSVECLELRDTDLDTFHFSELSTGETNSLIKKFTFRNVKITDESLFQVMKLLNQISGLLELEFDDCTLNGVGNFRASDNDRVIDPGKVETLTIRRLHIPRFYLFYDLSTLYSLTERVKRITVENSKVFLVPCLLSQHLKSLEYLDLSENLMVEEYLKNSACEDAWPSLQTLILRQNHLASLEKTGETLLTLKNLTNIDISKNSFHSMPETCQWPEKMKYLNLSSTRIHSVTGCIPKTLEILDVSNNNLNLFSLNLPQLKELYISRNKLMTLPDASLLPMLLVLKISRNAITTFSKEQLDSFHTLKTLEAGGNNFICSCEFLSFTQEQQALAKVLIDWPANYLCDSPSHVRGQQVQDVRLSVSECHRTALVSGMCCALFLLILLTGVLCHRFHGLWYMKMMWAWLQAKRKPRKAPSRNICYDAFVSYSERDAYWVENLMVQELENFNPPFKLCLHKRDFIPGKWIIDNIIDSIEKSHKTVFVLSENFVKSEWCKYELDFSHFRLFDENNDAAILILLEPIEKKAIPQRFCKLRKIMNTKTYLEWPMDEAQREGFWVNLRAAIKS
T1 sequence (Q9HC29 whole entry R703H): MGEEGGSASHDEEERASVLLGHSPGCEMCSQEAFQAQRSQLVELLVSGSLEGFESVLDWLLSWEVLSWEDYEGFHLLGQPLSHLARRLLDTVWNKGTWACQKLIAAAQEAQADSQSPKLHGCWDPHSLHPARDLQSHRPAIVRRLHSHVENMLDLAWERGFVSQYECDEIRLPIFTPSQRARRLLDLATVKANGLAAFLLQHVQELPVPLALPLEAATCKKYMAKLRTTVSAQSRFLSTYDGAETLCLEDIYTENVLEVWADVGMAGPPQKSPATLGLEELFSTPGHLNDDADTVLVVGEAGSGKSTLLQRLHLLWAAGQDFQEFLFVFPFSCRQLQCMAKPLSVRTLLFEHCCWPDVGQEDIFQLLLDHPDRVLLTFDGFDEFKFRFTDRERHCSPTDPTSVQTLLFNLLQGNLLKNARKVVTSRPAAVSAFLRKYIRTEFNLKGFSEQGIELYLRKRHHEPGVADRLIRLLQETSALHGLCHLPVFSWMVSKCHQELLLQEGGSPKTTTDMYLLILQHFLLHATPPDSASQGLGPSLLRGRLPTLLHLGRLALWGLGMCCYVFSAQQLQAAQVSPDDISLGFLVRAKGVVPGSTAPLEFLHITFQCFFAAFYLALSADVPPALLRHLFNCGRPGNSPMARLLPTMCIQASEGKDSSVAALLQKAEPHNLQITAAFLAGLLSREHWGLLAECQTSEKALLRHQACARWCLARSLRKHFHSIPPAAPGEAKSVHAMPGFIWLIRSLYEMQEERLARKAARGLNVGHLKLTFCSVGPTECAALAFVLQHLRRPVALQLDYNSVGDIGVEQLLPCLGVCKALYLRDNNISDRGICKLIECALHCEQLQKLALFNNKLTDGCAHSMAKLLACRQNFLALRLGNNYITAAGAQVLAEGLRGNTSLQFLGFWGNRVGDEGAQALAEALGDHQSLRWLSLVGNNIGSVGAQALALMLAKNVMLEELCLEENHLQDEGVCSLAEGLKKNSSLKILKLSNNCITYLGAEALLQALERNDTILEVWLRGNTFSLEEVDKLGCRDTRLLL

Compound: CCC(C)(C)C(=O)C(=O)N1CCCC[C@H]1C(=O)O[C@H](CCc1ccc(OC)c(OC)c1)c1cccc(OCC(=O)NCCNC(=O)COc2cccc([C@@H](CCc3ccc(OC)c(OC)c3)OC(=O)[C@@H]3CCCCN3C(=O)C(=O)C(C)(C)CC)c2)c1 [AP1510]
- NF-κB activation by Nod2-Fpk3 upon ligand (Nod2-Fpk3; 500 nM AP1510, suboptimal amounts (1 ng) of plasmid): induced NF-KB activation in a ligand-dependent manner
- NF-κB activation by Nod2-Fpk3 construct lacking the LRRs (Nod2-Fpk3; 500 nM AP1510 or untreated): induced NF-κB activation in the absence and presence of AP1510

Compound: Cc1ccc(S(=O)(=O)/C=C/C#N)cc1 [Bay11-7082]
- inhibition of the DNA binding complex induced by MDP (NF-κB [1]): inhibited

Compound: CC(=O)NC1C(O)OC(CO)C(O)C1OC(C)C(=O)NC(C)C(=O)NC(CCC(=O)O)C(N)=O [MurNAc-L-Ala-L-isoGln]
- ability to stimulate NOD2 (stereoselectivity) (Nod2): eliminated the ability of MDP to stimulate NOD2

Compound: PaM3CysSerLyS4 [SBLP]
- induction of NF-κB reporter gene activity (NF-κB [2]; HEK293T cells transfected with control plasmid, 10 μg/ml of each pathogen product): No significant induction of reporter gene activity
- TLR2-mediated cellular response (NF-κB) (TLR2): mediated a cellular response

Compound: TNFα
- activation of NF-κB (NF-κB [2]; HEK293T cells stimulated with 10 ng/ml of TNFα for 4 h): 14±1 fold
- NF-κB activity in parental Rat1 cells (NF-κB [3]): induced NF-κB activity
